This is an account of results in patent publication US7435733B2, “Mineralocorticoid receptor modulator compounds and methods, and pharmaceutical compositions containing these compounds” (Ligand Pharmaceuticals, Inc., priority 2004, dated 2008).

This assay addresses T1, human mineralocorticoid receptor protein (MR) (Homo sapiens, UniProt P08235).
T1 construct: made in house; host or cells: Spodoptera frugiperda Sf21 insect cells (baculovirus)
T1 sequence (P08235 1-984): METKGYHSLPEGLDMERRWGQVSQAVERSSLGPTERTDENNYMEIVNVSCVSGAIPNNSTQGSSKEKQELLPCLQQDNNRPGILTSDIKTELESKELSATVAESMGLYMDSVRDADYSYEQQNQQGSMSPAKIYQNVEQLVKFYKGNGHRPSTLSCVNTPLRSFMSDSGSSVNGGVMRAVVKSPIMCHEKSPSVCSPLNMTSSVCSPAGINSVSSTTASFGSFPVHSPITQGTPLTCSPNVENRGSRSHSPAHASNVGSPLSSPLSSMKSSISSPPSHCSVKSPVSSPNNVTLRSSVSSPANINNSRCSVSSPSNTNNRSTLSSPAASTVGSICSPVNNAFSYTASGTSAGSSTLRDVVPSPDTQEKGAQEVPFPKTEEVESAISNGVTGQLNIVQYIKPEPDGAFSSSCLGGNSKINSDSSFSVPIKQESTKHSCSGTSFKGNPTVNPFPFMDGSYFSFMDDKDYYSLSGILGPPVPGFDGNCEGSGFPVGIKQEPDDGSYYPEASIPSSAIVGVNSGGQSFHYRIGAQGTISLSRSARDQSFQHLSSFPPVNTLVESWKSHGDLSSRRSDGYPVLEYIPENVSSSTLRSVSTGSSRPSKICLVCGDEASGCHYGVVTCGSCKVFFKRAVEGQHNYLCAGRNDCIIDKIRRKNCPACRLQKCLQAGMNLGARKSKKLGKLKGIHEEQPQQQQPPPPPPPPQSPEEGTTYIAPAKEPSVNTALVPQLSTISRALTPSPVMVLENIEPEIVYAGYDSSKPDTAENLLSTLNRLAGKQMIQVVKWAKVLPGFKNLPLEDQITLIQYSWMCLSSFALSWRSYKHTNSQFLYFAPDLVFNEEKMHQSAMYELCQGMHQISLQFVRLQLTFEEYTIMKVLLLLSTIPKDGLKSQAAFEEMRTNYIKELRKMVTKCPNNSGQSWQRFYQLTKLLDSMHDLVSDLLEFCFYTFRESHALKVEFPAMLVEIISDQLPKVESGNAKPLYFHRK
Description: Mineralocorticoid receptor binding assay ([3H]aldosterone displacement, MR lysate). The settings on record: baculovirus-expressed MR lysate from Sf21 cells; 2-4 nM [3H]aldosterone; 16 hours at 4° C.; Cheng-Prusoff from IC50. As for the experimental part:
A baculovirus expression plasmid comprising cDNA encoding the human mineralocorticoid receptor protein (MR) was prepared using standard techniques. See e.g. E. A. Allegretto et. al. 268 J. Biol. Chem., 26625 (1993); G. Srinivasan and B. Thompson, 4 Mol. Endo., 209 (1990); and D. R. O'Reilly et. al., in “Baculovirus Expression Vectors”, D. R. O'Reilly et. al., eds., W.H. Freeman, New York, N.Y., pp. 139-179 (1992). That expression plasmid was co-transfected together with wild type Autographa californica multiple nuclear polyhedrosis virus DNA into Spodopter frugiperda-21 (Sf-21) cells to generate recombinant virus comprising MR cDNA. See e.g. O'Reilly, D. R., Miller, L. K., Luckow, V. A., Regulation of expression of a baculovirus ecdysteroid UDP glucosyltransferase gene. “Baculovirus Expression Vectors.” WH Freeman, N.Y., 139-179 (1992). […]
After incubation, 200 μl of 6.25% hydroxylapatite in assay buffer was added to each assay sample to precipitate the protein. […] Radioactivity in counts per minute (CPM) of each washed pellet was determined by liquid scintillation counter (MicroBeta™, Wallach).
Specific binding for a particular sample was calculated using the equation: (Sample CPM)−(Average Non-specific CPM) Average Non-specific CPM was defined as the amount of radioactivity from samples comprising an excess (i.e. 1000 nM) of unlabeled aldosterone. […]

Broadly, the Ki is the equilibrium dissociation constant of an inhibitor or competing ligand from its target. A lower Ki goes with tighter binding. `O=C1Nc2ccc(-c3cccc(C(F)(F)F)c3)c3c2C(CCC3)O1` (racemic) [Compound 101, (±)-7,8,9,9a-Tetrahydro-6-[(3-trifluoromethyl)phenyl]-3H-naphtho[1,8-de][1,3]oxazin-2-one]: the Ki came to 335 nM. In the case of `N#Cc1cccc(-c2ccc3c4c2CCCC4OC(=O)N3)c1` (racemic) [Compound 102, (±)-7,8,9,9a-Tetrahydro-6-(3-cyanophenyl)-3H-naphtho[1,8-de][1,3]oxazin-2-one] it was 650 nM.
